# Read-outs that look alike come from different tables or passages of the source.
# Target: T1, Human Recombinant Matriptase 2 (Homo sapiens, UniProt Q8IU80)
# T1 construct: purchased Enzo Life Sciences (an in-house preparation was also used) ALX-201-752-1
# T1 sequence (Q8IU80 1-811): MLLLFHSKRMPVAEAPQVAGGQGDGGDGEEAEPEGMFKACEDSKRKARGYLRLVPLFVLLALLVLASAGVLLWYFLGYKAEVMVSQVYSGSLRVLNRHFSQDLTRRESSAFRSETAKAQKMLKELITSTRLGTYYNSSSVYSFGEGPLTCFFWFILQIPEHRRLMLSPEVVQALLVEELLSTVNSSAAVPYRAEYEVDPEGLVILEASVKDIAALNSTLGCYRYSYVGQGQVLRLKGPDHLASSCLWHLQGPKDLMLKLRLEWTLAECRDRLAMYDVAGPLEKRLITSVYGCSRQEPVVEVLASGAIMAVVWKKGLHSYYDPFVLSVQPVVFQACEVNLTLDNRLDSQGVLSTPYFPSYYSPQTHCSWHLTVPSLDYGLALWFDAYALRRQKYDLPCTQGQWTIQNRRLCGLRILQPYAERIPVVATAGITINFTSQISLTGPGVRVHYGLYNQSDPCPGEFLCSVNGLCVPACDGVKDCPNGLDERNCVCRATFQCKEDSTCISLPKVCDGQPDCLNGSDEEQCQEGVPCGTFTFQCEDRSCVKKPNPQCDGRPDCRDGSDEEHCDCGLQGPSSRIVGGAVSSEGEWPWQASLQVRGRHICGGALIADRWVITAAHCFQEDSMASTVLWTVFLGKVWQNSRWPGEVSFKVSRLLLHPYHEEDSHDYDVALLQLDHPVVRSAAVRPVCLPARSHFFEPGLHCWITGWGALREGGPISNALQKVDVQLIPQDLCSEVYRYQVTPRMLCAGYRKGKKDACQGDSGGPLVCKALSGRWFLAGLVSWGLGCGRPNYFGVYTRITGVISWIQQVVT
# Assay: Matriptase 2 fluorescence based inhibition assay, Method A (100 mM TRIS pH 9, 1 mg/mL BSA)
# Assay type: biochemical
# Conditions: read-out: Mar-2 % inhibition at 1 uM
# Outline: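 Enzyme (7 nM commercial or 15 nM in-house) preincubated 30 min with compound in 100 mM TRIS pH 9, 1 mg/mL BSA, 1% DMSO at 25° C. Boc-Gln-Ala-Arg-AMC substrate at 100 μM; fluorescence (Ex 360/Em 480 nm) read 60 min later. Screened at 1 and 10 μM; IC50 from variable-slope sigmoidal fit.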
Compound,"inhibition at 1 µM (1 uM, Assay Used A) [%]","inhibition at 1 µM (at 1 uM, Assay Used = A) [%]",other results
"N=C(N)c1ccc2cc(C(=O)N[C@H]3CC[C@H](NC(=O)c4ccccn4)CC3)n(Cc3ccc(C(F)(F)F)cc3)c2c1 [Compound I-9, 6-carbamimidoyl-N-((1r,4r)-4-(picolinamido)cyclohexyl)-1-(4-(trifluoromethyl)benzyl)-1H-indole-2-carboxamide]",25 to 50,,
CC(C)c1ccc(Cn2c(C(=O)N3CC[C@H](F)C3)cc3ccc(C(=N)N)cc32)cc1 [Compound I-293],,0 to 25,
C[C@H](NC(=O)c1cc2ccc(C(=N)N)cc2n1Cc1ccc(C(N)=O)cc1)c1cccc(F)c1 [Compound I-95],0 to 25,,
CSc1ccc(Cn2c(C(=O)NC3CCC(N)CC3)cc3ccc(C(=N)N)cc32)cc1 (centres unmarked) [Compound I-13],50 to 75,,
N=C(N)c1ccc2cc(C(=O)NC3CCC(N)CC3)n(Cc3ccc(Oc4ccc(F)cc4)cc3)c2c1 (centres unmarked) [Compound I-243],,50 to 75,
"N=C(N)c1ccc2c(O)c(C(=O)NCC3CCCCC3)n(Cc3ccc(C(N)=O)cc3)c2c1 [Compound I-212, 6-Carbamimidoyl-1-(4-carbamoylbenzyl)-N-(cyclohexylmethyl)-3-hydroxy-1H-indole-2-carboxamide]",,0 to 25,
N=C(N)c1ccc2cc(C(=O)NCc3ccc(N4CCCC4)cc3)n(Cc3ccc(C(N)=O)cc3)c2c1 [Compound I-112],25 to 50,,
N=C(N)c1ccc2cc(C(=O)Nc3ccc(C(N)=O)cc3)n(CCc3ccccc3)c2c1 [Compound I-25],0 to 25,,
N=C(N)c1ccc2cc(C(=O)NCC3CCC(F)(F)CC3)n(CCS(=O)(=O)c3ccccc3)c2c1 [Compound I-54],0 to 25,,
N=C(N)c1ccc2cc(C(=O)NCC3CCNCC3)n(CCS(=O)(=O)c3ccccc3)c2c1 [Compound I-50],50 to 75,,
N=C(N)c1ccc2cc(C(=O)NCc3cccc(F)c3)n(Cc3ccc(C(N)=O)cc3)c2c1 [Compound I-76],0 to 25,,
"N=C(N)c1ccc2c(Cl)c(C(=O)N3CCC(F)CC3)n(Cc3ccc(-c4ccccc4)cc3)c2c1 [Compound I-353, 1-([1,1′-Biphenyl]-4-ylmethyl)-3-chloro-2-(4-fluoropiperidine-1-carbonyl)-1H-indole-6-carboximidamide]",,0 to 25,
N=C(N)c1ccc2cc(C(=O)N[C@H]3CC[C@H](N)CC3)n(Cc3ccc(-c4ccccc4)cc3)c2c1 [Compound I-234],,25 to 50,
N=C(N)c1ccc2cc(C(=O)Nc3cc(N4CCCC4)ccc3F)n(Cc3ccc(C(N)=O)cc3)c2c1 [Compound I-152],0 to 25,,
N=C(N)c1ccc2c(N)c(C(=O)N3CCC4CCCCC4C3)n(CCS(=O)(=O)c3ccccc3)c2c1 (centres unmarked) [Compound I-351],,0 to 25,
N=C(N)c1ccc2cc(C(=O)N3CCCC(F)(F)C3)n(Cc3ccc(C(N)=O)cc3)c2c1 [Compound I-328],,0 to 25,
N=C(N)c1ccc2cc(C(=O)N3CCC(CCN)CC3)n(Cc3cccc(Oc4ccccc4)c3)c2c1 [Compound I-321],,25 to 50,
N=C(N)c1ccc2cc(C(=O)N3CCC(CCN)CC3)n(S(=O)(=O)c3ccc4ccccc4c3)c2c1 [Compound I-335],,0 to 25,
CCOC(=O)NC(=N)c1ccc2cc(C(=O)Nc3ccc(N4CCCC4)cc3)n(Cc3ccc(C(N)=O)cc3)c2c1 [Compound I-119],0 to 25,,
CN(C)C(=O)COc1cccc(NC(=O)c2cc3ccc(C(=N)N)cc3n2Cc2ccc(C(N)=O)cc2)c1 [Compound I-93],0 to 25,,
COc1ccc2cc(Cn3c(C(=O)N[C@H]4CC[C@H](N)CC4)cc4ccc(/C(N)=N\O)cc43)ccc2c1 [Compound I-401],,,"inhibition at 1 µM (1 uM compound, Assay Used = A): 0 to 25%"
N=C(N)c1ccc2cc(C(=O)N3CCC(CCO)CC3)n(Cc3ccc(C(F)(F)F)cc3)c2c1 [Compound I-280],,0 to 25,
CC[C@@H](NC(=O)c1cc2ccc(C(=N)N)cc2n1Cc1ccc(C(N)=O)cc1)c1ccccc1 [Compound I-96],25 to 50,,
N=C(N)c1ccc2cc(C(=O)Nc3cc(F)ccn3)n(Cc3ccc(C(N)=O)cc3)c2c1 [Compound I-169],0 to 25,,
N=C(N)c1ccc2cc(C(=O)Nc3ccc(N4CCCC4)nc3)n(Cc3ccc(C(N)=O)cc3)c2c1 [Compound I-177],0 to 25,,

Compound,"inhibition at 1 µM (1 uM, Assay Used A) [%]","inhibition at 1 µM (at 1 uM, Assay Used = A) [%]",other results
CC[C@@H](CO)NC(=O)c1cc2ccc(C(=N)N)cc2n1Cc1ccc(C(N)=O)cc1 [Compound I-209],,0 to 25,
N=C(N)c1ccc2cc(C(=O)N3CCC(CCN)CC3)n(CCC(N)=O)c2c1 [Compound I-276],,25 to 50,
N=C(N)c1ccc2cc(C(=O)Nc3ccc(C(F)(F)F)cc3)n(CCS(=O)(=O)c3ccccc3)c2c1 [Compound I-43],0 to 25,,
"COC(=O)c1ccc(Cn2c(C(=O)N[C@H]3CC[C@H](N)CC3)cc3ccc(C(=N)N)cc32)cc1 [Compound I-21, Methyl 4-((2-(((1r,4r)-4-aminocyclohexyl)carbamoyl)-6-carbamimidoyl-1H-indol-1-yl)methyl)-benzoate]",50 to 75,,
N=C(N)c1ccc2cc(C(=O)NCC3CCCCC3)n(Cc3ccc(OC(F)(F)F)cc3)c2c1 [Compound I-12],0 to 25,,
N=C(N)c1ccc2cc(C(=O)Nc3cccc(-c4nccs4)c3)n(Cc3ccc(C(N)=O)cc3)c2c1 [Compound I-144],0 to 25,,
N=C(N)c1ccc2cc(C(=O)Nc3cc(F)cc(Br)c3)n(Cc3ccc(C(N)=O)cc3)c2c1 [Compound I-126],0 to 25,,
CS(=O)(=O)c1cccc(NC(=O)c2cc3ccc(C(=N)N)cc3n2Cc2ccc(C(N)=O)cc2)c1 [Compound I-150],0 to 25,,
N=C(N)c1ccc2cc(C(=O)N3CCC(C(F)(F)F)CC3)n(Cc3ccc(C(N)=O)cc3)c2c1 [Compound I-329],,0 to 25,
"N=C(N)c1ccc2cc(C(=O)NCC3CCCCC3)n(Cc3ccc(C(=O)NCCN)cc3)c2c1 [Compound I-225, 1-(4-((2-Aminoethyl)carbamoyl)benzyl)-6-carbamimidoyl-N-(cyclohexylmethyl)-1H-indole-2-carboxamide]",,0 to 25,
CN(C)C(=O)c1ccc(Cn2c(C(=O)N3CCC(F)CC3)cc3ccc(C(=N)N)cc32)cc1 [Compound I-389],,0 to 25,
N=C(N)c1ccc2cc(C(=O)N3CCC(F)(F)CC3)n(CCS(=O)(=O)c3ccccc3)c2c1 [Compound I-344],,0 to 25,
N=C(N)c1ccc2cc(C(=O)Nc3ccc(CN4CCCC4)cc3)n(Cc3ccc(C(N)=O)cc3)c2c1 [Compound I-114],25 to 50,,
N=C(N)c1ccc2cc(C(=O)N3CCC(F)(F)C3)n(Cc3ccc(Oc4ccccc4)cc3)c2c1 [Compound I-314],,0 to 25,
N=C(N)c1ccc2cc(C(=O)Nc3cccc(-c4ccccc4)c3)n(Cc3ccc(C(N)=O)cc3)c2c1 [Compound I-151],0 to 25,,
CCCCCCOC(=O)NC(=N)c1ccc2cc(C(=O)Nc3cccc(N4CCCC4)c3)n(Cc3ccc(C(N)=O)cc3)c2c1 [Compound I-159],0 to 25,,
N=C(N)c1ccc2cc(C(=O)Nc3cccc(N4CCCCC4)c3)n(Cc3ccc(C(N)=O)cc3)c2c1 [Compound I-110],0 to 25,,
C[C@H](NC(=O)c1cc2ccc(C(=N)N)cc2n1Cc1ccc(C(N)=O)cc1)C1CCCCC1 [Compound I-193],0 to 25,,
"N=C(N)c1ccc2cc(C(=O)N3CCC(F)C3)n(Cc3cccc(C(N)=O)c3)c2c1 (centres unmarked) [Compound I-323, 3-((6-Carbamimidoyl-2-(3-fluoropyrrolidine-1-carbonyl)-1H-indol-1-yl)methyl)benzamide]",,0 to 25,
N=C(N)c1ccc2cc(C(=O)Nc3cccc(-n4cccc4)c3)n(Cc3ccc(C(N)=O)cc3)c2c1 [Compound I-154],0 to 25,,
COc1ccc(NC(=O)c2cc3ccc(C(=N)N)cc3n2Cc2ccc(C(N)=O)cc2)cc1OC [Compound I-69],0 to 25,,
N=C(N)c1ccc2cc(C(=O)Nc3ccc(F)c(Br)c3)n(Cc3ccc(C(N)=O)cc3)c2c1 [Compound I-111],0 to 25,,
"CCOC(=O)c1ccc(Cn2c(C(=O)N[C@H]3CC[C@H](N)CC3)cc3ccc(C(=N)N)cc32)cc1 [Compound I-22, Ethyl 4-((2-(((1r,4r)-4-aminocyclohexyl)carbamoyl)-6-carbamimidoyl-1H-indol-1-yl)methyl)-benzoate]",25 to 50,,
N=C(N)c1ccc2cc(C(=O)N3CCC(CF)CC3)n(Cc3ccc(OC(F)(F)F)cc3)c2c1 [Compound I-291],,0 to 25,
N=C(N)c1ccc2cc(C(=O)NC34CC5CC(CC(O)(C5)C3)C4)n(Cc3ccc(Oc4ccc(F)cc4)cc3)c2c1 [Compound I-244],,25 to 50,

# Reference: US12428415B2, “Matriptase 2 inhibitors and uses thereof” (Disc Medicine, Inc., priority 2018, dated 2025)
